Where a SMILES comes first, the peptide text is derived from it.
Target: T1, Angiotensin converting enzyme from rabbit lung (Oryctolagus cuniculus, UniProt P12822)
T1 construct: Angiotensin converting enzyme from rabbit lung (A6778- 0.25 UN), was obtained from Sigma; purchased Sigma A6778; host or cells: rabbit lung tissue
T1 sequence (P12822 34-1310): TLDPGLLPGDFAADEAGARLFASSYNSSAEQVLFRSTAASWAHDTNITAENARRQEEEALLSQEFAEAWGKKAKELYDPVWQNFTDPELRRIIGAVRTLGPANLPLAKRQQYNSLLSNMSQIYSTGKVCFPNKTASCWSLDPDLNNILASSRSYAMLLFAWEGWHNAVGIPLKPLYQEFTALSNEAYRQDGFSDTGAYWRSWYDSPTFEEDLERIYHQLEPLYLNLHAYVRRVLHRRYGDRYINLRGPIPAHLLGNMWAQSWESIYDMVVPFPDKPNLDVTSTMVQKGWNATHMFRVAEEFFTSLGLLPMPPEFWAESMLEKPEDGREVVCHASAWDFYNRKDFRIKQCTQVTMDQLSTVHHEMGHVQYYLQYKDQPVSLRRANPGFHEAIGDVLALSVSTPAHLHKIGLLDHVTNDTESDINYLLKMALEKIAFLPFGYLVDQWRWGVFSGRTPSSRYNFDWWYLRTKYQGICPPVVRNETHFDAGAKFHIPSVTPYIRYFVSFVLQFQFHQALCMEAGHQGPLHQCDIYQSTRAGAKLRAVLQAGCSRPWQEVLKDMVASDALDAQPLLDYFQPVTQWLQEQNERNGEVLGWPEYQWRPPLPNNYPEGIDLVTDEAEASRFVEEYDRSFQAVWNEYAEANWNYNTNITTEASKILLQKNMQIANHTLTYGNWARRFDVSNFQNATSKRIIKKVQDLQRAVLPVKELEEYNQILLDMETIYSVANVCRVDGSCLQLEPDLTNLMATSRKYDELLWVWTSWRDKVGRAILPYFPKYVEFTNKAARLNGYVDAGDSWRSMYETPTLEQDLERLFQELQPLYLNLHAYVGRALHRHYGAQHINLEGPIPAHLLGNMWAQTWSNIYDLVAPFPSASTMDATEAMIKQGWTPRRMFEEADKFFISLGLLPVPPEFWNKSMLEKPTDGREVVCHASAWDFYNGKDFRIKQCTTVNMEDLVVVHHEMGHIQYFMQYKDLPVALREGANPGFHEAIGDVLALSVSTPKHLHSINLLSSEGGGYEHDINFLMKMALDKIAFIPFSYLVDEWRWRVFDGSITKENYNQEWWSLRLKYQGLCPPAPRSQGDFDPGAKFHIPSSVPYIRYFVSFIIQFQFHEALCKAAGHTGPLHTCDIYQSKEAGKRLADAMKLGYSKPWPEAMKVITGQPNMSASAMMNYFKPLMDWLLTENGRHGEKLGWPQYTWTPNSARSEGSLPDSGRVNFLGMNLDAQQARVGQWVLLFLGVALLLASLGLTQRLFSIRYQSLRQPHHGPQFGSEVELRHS
Test: ACE inhibition by synthetic BPPs, fluorescence energy transfer assay with Abz-Phe-Arg-Lys(Dnp)-Pro-OH
Assay type: biochemical
Conditions: for ACE inhibition / IC 50, in words: qualitative comparison of the four synthesized peptides; for IC50: rabbit lung ACE, FRET substrate Abz-Phe-Arg-Lys(Dnp)-Pro-OH, Tris/NaCl/ZnCl2 buffer, pH 7.0, 10 min incubation at room temperature, λex 320 nm, λem 420 nm, 5 min, six serial dilutions 0.500-0.002 mM, 5 μl of dilution in assay, repeated five times
Method: The snake venom of Agkistrodon bilineatus bilineatus, was obtained from Venom Supplies, Australia, and was placed at -20° till further use. The venom was collected from the snakes bred in the farms of Venom Supplies, Australia. All the solvents used were of HPLC grade and were obtained from Merck. The substrate Abz-Phe-Arg-Lys (Dnp)-Pro-OH for angiotensin converting enzyme was obtained from BACHEM. Angiotensin converting enzyme from rabbit lung (A6778- 0.25 UN), was obtained from Sigma. The synthesized peptides ZLWPRPQIPP, ZQWAQGRAPHPP, ZSAPGNEAIPP, ZNWPHPQIPP were purchased from China Peptide company, Shanghai, China. The peptides were 95 % pure, and were kept at -20° till use. The N-terminus of these synthetic peptide is pyroglutame (represented by Z), while the C-terminus is an amino acid with free carboxylic group.
ACE activities in the presence of venom peptides were determined by a fluorescence energy transfer assay using Abz-Phe-Arg-Lys (Dnp)-Pro-OH as a substrate. 1 mg of the substrate was weighed and dissolved in 1 ml DMSO. The exact concentration of the substrate was determined by taking four different volumes of the substrate stock solution, and constructing a standard curve spectrophometrically at 365 nm, using the molar extinction coefficient of the Dnp group ([…] = 17,300 M^−1 cm^−1), according to the Beer’s Lambert Law (A = εDnp x l x c). A stock solution of the enzyme was prepared by suspending 0.25 UN of ACE in 250 μl of the assay buffer (12.10 g Tris-base, 2.92 g NaCl and 1.36 mg ZnCl2 in 1 l of deionised water, pH to 7.0 adjusted with HCl).
In order to determine the IC 50 values of the synthesized peptides, a stock solution (10 mM) of each was prepared in the assay buffer. From the stock solutions, six serial dilutions were prepared for each peptide. The concentrations of the six dilutions were as follows, 0.500 mM, 0.167 mM, 0.056 mM, 0.019 mM, 0.006 mM and 0.002 mM respectively. In the final assay, 85 μl of the assay buffer, 2 μl of the enzyme stock solution, and 5 μl of the dilute peptide solution were added. The mixture was incubated for 10 min at room temperature. The reaction was started by adding 10 μl of the working solution of the substrate (20 μl of the stock +280 μl of the assay buffer). The same procedure was adopted using 5 μl of venom fractions instead of the synthetic peptides. Fluorescence measurements were made at λex = 320 nm and at λem = 420 nm, for 5 min each. These experiments were repeated five times to ensure accuracy of the results.

CC[C@H](C)[C@H](NC(=O)[C@H](C)NC(=O)[C@H](CCC(=O)O)NC(=O)[C@H](CC(N)=O)NC(=O)CNC(=O)[C@@H]1CCCN1C(=O)[C@H](C)NC(=O)[C@H](CO)NC(=O)[C@@H]1CCC(=O)N1)C(=O)N1CCC[C@H]1C(=O)N1CCC[C@H]1C(=O)O [Inhibitor 3 (P5)] (HELM PEPTIDE1{[Glp].S.A.P.G.N.E.A.I.P.P}$$$$V2.0)
ACE inhibition / IC 50, in words: much higher value
IC50: 30000 nM

C[C@H](NC(=O)[C@H](Cc1c[nH]c2ccccc12)NC(=O)[C@H](CCC(N)=O)NC(=O)[C@@H]1CCC(=O)N1)C(=O)N[C@@H](CCC(N)=O)C(=O)NCC(=O)N[C@@H](CCCNC(=N)N)C(=O)N[C@@H](C)C(=O)N1CCC[C@H]1C(=O)N[C@@H](Cc1c[nH]cn1)C(=O)N1CCC[C@H]1C(=O)N1CCC[C@H]1C(=O)O [Inhibitor 2 (P7)] (HELM PEPTIDE1{[Glp].Q.W.A.Q.G.R.A.P.H.P.P}$$$$V2.0)
ACE inhibition / IC 50, in words (listed as ZQWAQGRAPHPP): low IC 50 value
ACE inhibition / IC 50, in words (listed as peptide 7): low IC 50 values
IC50: 3630 nM

CC[C@H](C)[C@H](NC(=O)[C@H](CCC(N)=O)NC(=O)[C@@H]1CCCN1C(=O)[C@H](CCCNC(=N)N)NC(=O)[C@@H]1CCCN1C(=O)[C@H](Cc1c[nH]c2ccccc12)NC(=O)[C@H](CC(C)C)NC(=O)[C@@H]1CCC(=O)N1)C(=O)N1CCC[C@H]1C(=O)N1CCC[C@H]1C(=O)O [Inhibitor 1 (P6)] (HELM PEPTIDE1{[Glp].L.W.P.R.P.Q.I.P.P}$$$$V2.0)
ACE inhibition / IC 50, in words (listed as ZLWPRPQXPP): strongest inhibitors
ACE inhibition / IC 50, in words (listed as peptide 6): low IC 50 values
IC50: 640 nM

CC[C@H](C)[C@H](NC(=O)[C@H](CCC(N)=O)NC(=O)[C@@H]1CCCN1C(=O)[C@H](Cc1c[nH]cn1)NC(=O)[C@@H]1CCCN1C(=O)[C@H](Cc1c[nH]c2ccccc12)NC(=O)[C@H](CC(N)=O)NC(=O)[C@@H]1CCC(=O)N1)C(=O)N1CCC[C@H]1C(=O)N1CCC[C@H]1C(=O)O [Inhibitor 4 (P3)] (HELM PEPTIDE1{[Glp].N.W.P.H.P.Q.I.P.P}$$$$V2.0)
ACE inhibition / IC 50, in words (listed as ZNWPHPQXPP): strongest inhibitors
ACE inhibition / IC 50, in words (listed as peptide 5): low IC 50 values
IC50: 760 nM

— article PMC4712559, “Isolation and characterization of Bradykinin potentiating peptides from Agkistrodon bilineatus venom” (Proteome Science, 2016)
